What all share (assay type): biochemical
For assay [1], the target named is T1, catalytic domain of human stromelysin (MMP-3) (Homo sapiens, UniProt P08254).
T1 construct: of the catalytic domain of human stromelysin (MMP-3) and neutrophilic collagenase (MMP-8); made in house
Description: Enzyme activity of the catalytic domain of human stromelysin (MMP-3), fluorogenic substrate. Particulars: catalytic domain prepared as described by Ye et al., fluorescence 328/393 nm. The protocol: b) Preparation, and determination of the enzyme activity, of the catalytic domain of human stromelysin (MMP-3) and neutrophilic collagenase (MMP-8).
The two enzymes, i.e. stromelysin (MMP-3) and neutrophilic collagenase (MMP-8), were prepared as described by Ye et al. (Biochemistry; 31 (1992) pages 11231–11235). In order to measure the enzyme activity or the inhibitory effect on the enzyme, 10 μl of enzyme solution were incubated, for 15 minutes, with 10 μl of a 3% (v/v) buffered solution of dimethyl sulfoxide which contained the enzyme inhibitor, where appropriate. After 10 μl of a 3% (v/v) aqueous solution of dimethyl sulfoxide which contained 1 mmol of substrate/l had been added, the enzyme reaction was monitored by fluorescence spectroscopy (328 nm (ex)/393 nm(em)).
(§1) The enzyme activity is presented as increase in extinction/minute.
The buffer solution contained 0.05% Brij (Sigma, Deisenhofen, Germany) as well as 0.1 mol of tris/HCl/l, 0.1 mol of NaCl/l, 0.01 mol of CaCl2/l and 0.1 mol of piperazine-N,N′-bis[2-ethanesulfonic acid]/l (pH=7.5). The MMP-3 enzyme solution contained 2.3 μg, and the MMP-8 enzyme solution contained 0.6 μg, of one of the enzyme domains/ml prepared as described by Ye et al. The substrate solution contained 1 mmol of the fluorogenic substrate (7-methoxycoumarin-4-yl)acetyl-Pro-Leu-Gly-Leu-3-(2′,4′-dinitrophenyl)-L-2,3-diaminopropionyl-Ala-Arg-NH2/l (Bachem, Heidelberg, Germany).

Assay [2] has as its target T2, catalytic domain of human gelatinase B (MMP-9) (Homo sapiens, UniProt P14780).
T2 construct: enzyme activity of the catalytic domain of human gelatinase B (MMP-9); purchased Roche, Mannheim 1 758 896
Kind of assay: Enzyme activity of the catalytic domain of human gelatinase B (MMP-9), fluorogenic substrate. Particulars: APMA-activated proenzyme, fluorescence 328/393 nm. The protocol: e) Determining the enzyme activity of the catalytic domain of human gelatinase B (MMP-9). […] Activation of the proenzyme:
2 parts by volume of proenzyme were incubated, at 37° C. for 4 hours, with 1 part by volume of APMA solution. The APMA solution was prepared from a 10 mmol/l solution of p-aminophenylmercuric acetate in 0.1 mmol/l NaOH by diluting it with 3 parts by volume of tris/HCl buffer, pH 7.5 (see below). The pH was adjusted to between 7.0 and 7.5 by adding 1 mmol/l HCl. After the enzyme had been activated, it was diluted with the tris/HCl buffer to a concentration of 4.2 mU/ml.
In order to measure the activity of the enzyme, 10 μl of enzyme solution were incubated for 15 minutes with 10 μl of a 3% (v/v) buffered solution of dimethyl sulfoxide (reaction 1). In order to measure the enzyme inhibitor activity, 10 μl of enzyme solution were incubated with 10 μl of a 3% (v/v) buffered solution of dimethyl sulfoxide which contained the enzyme inhibitor (reaction 2). Both in the case of reaction 1 and in the case of reaction 2, the enzyme reaction was monitored by fluorescence spectroscopy (328 nm (extinction)/393 nm (emission)) after 10 ul of a 3% (v/v) aqueous solution of dimethyl sulfoxide, which contained 0.15 mmol of the substrate/l, had been added.
The enzyme activity was presented as increase in extinction/minute.
The inhibitory effect was calculated as percentage inhibition in accordance with the following formula: % inhibition=100−[(increase in extinction/minute in reaction 2)/(increase in extinction/minute in reaction 1)×100].
The IC50, that is the concentration of inhibitor which is required for 50% inhibition of the enzyme activity, was determined graphically by plotting the percentage inhibitions at different inhibitor concentrations.
The buffer solution contained 0.05% Brij (Sigma, Deisenhofen, Germany) and also 0.1 mol of tris/HCl/l, 0.1 mol of NaCl/l, 0.01 mol of CaCl2/l (pH=7.5). The enzyme solution contained 4.2 mU of the enzyme domain/ml. The substrate solution contained 0.15 mmol of the fluorogenic substrate (7-methoxycoumarin-4-yl)acetyl-Pro-Leu-Gly-Leu-3-(2′,4′-dinitrophenyl)-L-2,3-diaminopropionyl-Ala-Arg-NH2/ (Bachem, Heidelberg, Germany).

The target in assay [3] is T3, catalytic domain of human collagenase-1 (MMP-1) (Homo sapiens, UniProt P03956).
T3 construct: enzyme activity of the catalytic domain of human collagenase-1 (MMP-1); purchased Biocol, Potsdam MMP1
T3 sequence (P03956 100-269 limits assumed): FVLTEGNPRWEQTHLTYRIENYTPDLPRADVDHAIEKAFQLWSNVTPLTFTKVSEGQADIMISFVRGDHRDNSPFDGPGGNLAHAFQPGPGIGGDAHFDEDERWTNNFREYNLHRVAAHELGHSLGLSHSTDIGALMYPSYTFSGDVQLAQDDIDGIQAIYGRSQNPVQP
Kind of assay: Enzyme activity of the catalytic domain of human collagenase-1 (MMP-1), fluorogenic substrate. To be noted: APMA-activated proenzyme, fluorescence 328/393 nm. How it is done: a) Determining the enzyme activity of the catalytic domain of human collagenase-1 (MMP-1).
Activation of the proenzyme:
2 parts by volume of proenzyme are incubated, at 37° C. for 1 hour, with 1 part by volume of APMA solution. The APMA solution is prepared from a 10 mmol/l solution of p-aminophenylmercuric acetate in 0.1 mmol/l NaOH by diluting with 3 parts by volume of tris/HCl buffer, pH 7.5 (see below). The pH is adjusted to between 7.0 and 7.5 by adding 1 mmol/l HCl. After the enzyme has been activated, it is diluted with the tris/HCl buffer to a concentration of 2.5 μg/ml.
In order to measure the enzyme activity, 10 μl of enzyme solution are incubated for 15 minutes with 10 μl of a 3% (v/v) buffered solution of dimethyl sulfoxide (reaction 1). In order to measure the enzyme inhibitor activity, 10 μl of enzyme solution are incubated with 10 μl of a 3% (v/v) buffered solution of dimethyl sulfoxide which contains the enzyme inhibitor (reaction 2).
Both in the case of reaction 1 and in the case of reaction 2, the enzyme reaction is monitored by fluorescence spectroscopy (328 nm (extinction)/393 nm (emission)) after adding 10 μl of a 3% (v/v) aqueous solution of dimethyl sulfoxide which contains 0.3 mmol of the substrate/l.
as §1
The inhibitory effect is calculated as percentage inhibition using the following formula: % inhibition=100−[(increase in extinction/minute in reaction 2)/(increase in extinction/minute in reaction 1)×100].
The IC50, i.e. the inhibitor concentration which is required for 50% inhibition of the enzyme activity, is determined graphically by plotting the percentage inhibitions at different inhibitor concentrations. The buffer solution contains 0.05% Brij (Sigma, Deisenhofen, Germany) and also 0.1 mol of tris/HCl/l, 0.1 mol of NaCl/l, 0.01 mol of CaCl2/l (pH=7.5).
The enzyme solution contains 2.5 μg of the enzyme domain/ml.
The substrate solution contains 0.3 mmol of the fluorogenic substrate (7-methoxycoumarin-4-yl)acetyl-Pro-Leu-Gly-Leu-3-(2′,4′-dinitrophenyl)-L-2,3-diaminopropionyl-Ala-Arg-NH2/l (Bachem, Heidelberg, Germany).

The results in this text go back to patent publication US7205315B2, “Bicyclic imino acid derivatives as inhibitors of matrix metalloproteinases” (Sanofi-Aventis Deutschland GmbH, priority 2003, dated 2007).

pIC50: −log10 of the molar value. Where a name gives a salt, the structure may show the parent alone.

T1 sequence (P08254 100-272 limits assumed): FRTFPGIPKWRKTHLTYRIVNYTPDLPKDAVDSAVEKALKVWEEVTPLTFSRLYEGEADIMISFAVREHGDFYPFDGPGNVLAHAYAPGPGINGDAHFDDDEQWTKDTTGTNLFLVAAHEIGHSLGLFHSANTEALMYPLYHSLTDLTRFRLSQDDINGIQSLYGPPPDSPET
T2 sequence (P14780 107-707 limits assumed): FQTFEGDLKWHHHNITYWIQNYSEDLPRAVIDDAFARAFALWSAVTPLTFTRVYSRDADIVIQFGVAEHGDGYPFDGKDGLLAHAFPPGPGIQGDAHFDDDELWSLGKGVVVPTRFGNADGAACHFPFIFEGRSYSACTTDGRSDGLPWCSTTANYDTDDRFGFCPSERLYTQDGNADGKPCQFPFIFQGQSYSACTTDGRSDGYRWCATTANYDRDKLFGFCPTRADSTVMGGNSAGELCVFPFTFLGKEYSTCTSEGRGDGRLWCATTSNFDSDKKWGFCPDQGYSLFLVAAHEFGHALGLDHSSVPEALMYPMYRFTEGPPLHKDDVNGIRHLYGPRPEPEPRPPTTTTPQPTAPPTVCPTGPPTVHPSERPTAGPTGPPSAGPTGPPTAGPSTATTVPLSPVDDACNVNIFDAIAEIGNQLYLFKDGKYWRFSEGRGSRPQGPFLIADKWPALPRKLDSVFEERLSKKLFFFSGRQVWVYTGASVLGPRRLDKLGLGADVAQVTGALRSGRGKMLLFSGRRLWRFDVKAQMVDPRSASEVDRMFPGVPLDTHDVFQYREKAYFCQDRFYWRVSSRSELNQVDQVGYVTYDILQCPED

`O=C(NO)C1C2CCCCC2CCN1S(=O)(=O)CCc1ccc(-c2ccc(Cl)cc2)cc1` (stereo not drawn) [Example 7, 2-[2-(4′-chlorobiphenyl-4-yl)ethanesulfonyl]decahydroisoquinoline-1-(N-hydroxy)carboxamide]: the negative logarithm of the IC50 (pIC50) was 7.19 in assay [1], 8.52 in assay [2] and 6.22 in assay [3].
`N#Cc1ccc(Oc2ccc(S(=O)(=O)N3CCC4CCCCC4C3C(=O)NO)cc2)cc1` (stereo not drawn) [Example 26, 2-[4-(4-cyanophenoxy)benzenesulfonyl]decahydroisoquinoline-1-(N-hydroxy)carboxamide]: the pIC50 in assay [1] is 7.39; in assay [2], 8.52; in assay [3], 6.35.
The like results for `O=C(NO)C1C2CCCCC2CCN1S(=O)(=O)c1ccc(-c2ccc(Cl)cc2)cc1` (stereo not drawn) [Example 3, 2-(4′-chlorobiphenyl-4-sulfonyl)decahydroisoquinoline-1-(N-hydroxy)-carboxamide] were, in that order, 7.40, 7.00 and 6.40.
For `O=C(NO)C1C2CCCCC2CCN1S(=O)(=O)c1ccc(Oc2ccc(OC(F)(F)F)cc2)cc1` (stereo not drawn) [Example 23, 2-[4-(4-trifluoromethoxyphenoxy)benzenesulfonyl]decahydroisoquinoline-1-(N-hydroxy)carboxamide], the figures for the pIC50 in assay [1], in assay [2] and in assay [3] were 7.30, 8.70 and 6.54, respectively.
Regarding `O=C(NO)C1C2CCCCC2CCN1S(=O)(=O)c1ccc(Oc2ccccc2)nc1` (stereo not drawn) [Example 5, 2-(6-phenoxypyridine-3-sulfonyl)decahydroisoquinoline-1-(N-hydroxy)-carboxamide trifluoroacetate], the pIC50 in assay [1] is 7.55; in assay [2], 8.92; in assay [3], 7.15.
For the molecule `O=C(NO)[C@@H]1[C@@H]2CCCC[C@@H]2CCN1S(=O)(=O)c1ccc(-c2ccc(Cl)cc2)cc1` (single isomer, unassigned) [Example 15, 2-(4′-chlorobiphenyl-4-sulfonyl)decahydroisoquinoline-1-(N-hydroxy)-carboxamide], the pIC50 in assay [1] is 5.00; in assay [2], 5.40; in assay [3], 5.22.
As for `O=C(NO)[C@H]1[C@H]2CCCC[C@H]2CCN1S(=O)(=O)c1ccc(Oc2ccc(F)cc2)cc1` [Example 21, 2-[4-(4-fluorophenoxy)benzenesulfonyl]decahydroisoquinoline-1-(N-hydroxy)carboxamide], the negative logarithm of the IC50 (pIC50) in assay [1] was 7.64; in assay [2] it was 9.35; in assay [3], 7.68.
The like results for `O=C(NO)[C@H]1[C@H]2CCCC[C@H]2CCN1S(=O)(=O)c1ccc(-c2ccc(Cl)cc2)cc1` (single isomer, unassigned) [Example 14, 2-(4′-chlorobiphenyl-4-sulfonyl)decahydroisoquinoline-1-(N-hydroxy)-carboxamide] were, in that order, 7.60, 8.46 and 6.40.
The like results for `O=C(NO)C1C2CCCCC2CCN1S(=O)(=O)c1ccc(Oc2ccc(OCC(F)(F)F)cc2)cc1` (stereo not drawn) [Example 13, 2-{4-[4-(2,2,2-trifluoroethoxy)phenoxy]benzenesulfonyl}decahydroisoquinoline-1-(N-hydroxy)carboxamide] were, in that order, 7.52, 8.70 and 6.74.
`COc1ccc(Oc2ccc(S(=O)(=O)N3CCC4CCCCC4C3C(=O)NO)cc2)cc1` (stereo not drawn) [Example 11, 2-[4-(4-methoxyphenoxy)benzenesulfonyl]decahydroisoquinoline-1-(N-hydroxy)carboxamide]: the figures for the pIC50 in assay [1], in assay [2] and in assay [3] were 7.60, 8.70 and 6.66, respectively.
The corresponding values for `O=C(NO)C1C2CCCCC2CCN1S(=O)(=O)c1ccc(Oc2ccc(F)cc2)cc1` (stereo not drawn) [Example 20, 2-[4-(4-fluorophenoxy)benzenesulfonyl]decahydroisoquinoline-1-(N-hydroxy)carboxamide] are 7.59, 8.70 and 7.39.
Consider `O=C(NO)C1C2CCCCC2CCN1S(=O)(=O)c1ccc(-c2ccc(OC(F)(F)F)cc2)cc1` (stereo not drawn) [Example 19, 2-(4′-trifluoromethoxybiphenyl-4-sulfonyl)decahydroisoquinoline-1-(N-hydroxy)carboxamide], for which the pIC50 in assay [1] is 7.23; in assay [2] it was 8.30; in assay [3] it was 5.68.
The corresponding values for `O=C(NO)C1C2CCCCC2CCN1S(=O)(=O)c1ccc(Oc2ccncc2)cc1` (stereo not drawn) [Example 9, 2-[4-(pyridin-4-yloxy)benzenesulfonyl]decahydroisoquinoline-1-(N-hydroxy)carboxamide trifluoroacetate] are 6.80, 7.92 and 6.00.
